From US8815947B2, “Methods of treating metabolic disorders” (Case Western Reserve University, priority 2007, dated 2014)
Read-outs that look alike come from different tables or passages of the source. Blank lines part the entries; values can stand above or below the compound they belong to.

Columns and labels:
[1] = test system: PPARβ/δ target genes FIAF, ADRP, and PDK-1; experiment: Q-PCR of endogenous PPARβ/δ target genes in HaCaT cells; type: cell-based, human; settings: for expression of mRNA of PPARβ/δ target genes FIAF, ADRP and PDK-1: normalized to 18s mRNA
Experimental: (§1) FIG. 1C illustrates graphs showing the levels of mRNA of the PPARβ/δ target genes FIAF, ADRP, and PDK-1 expressed from HaCaT cells treated with the denoted ligands (0.1 μM, 4 hr). Levels of mRNA of the PPARβ/δ target genes FIAF, ADRP, and PDK-1 were analyzed by Q-PCR and normalized to 18s mRNA. FIG. 1D illustrate a graph showing the level of ADRP mRNA in HaCaT cells that were transfected with control siRNA or PPARβ/δ siRNA (24 hr.), and then treated with the denoted ligands (0.1 μM, 4 hr). ADRP mRNA was analyzed by QPCR and normalized to 18s mRNA. […] FIG. 1F illustrates a graph of the total activation of HaCaT cells transfected with a RARE-driven luciferase reporter. Cells were treated with RA at the denoted concentrations (15 hr), lysed, and luciferase activity measured and corrected for β-galactosidase activity. Data were normalized to the basal activity. […] FIG. 1G illustrates a graph of the level of expression of mRNA of the RAR target gene Cyp26α in cells that were treated with the denoted ligands. Expression of mRNA of the RAR target gene Cyp26α was analyzed by Q-PCR and normalized to 18s mRNA.
Quantitative real-time PCR (Q-PCR). RNA was extracted and cDNA generated using Gene Amp RNA PCR (Applied Biosystems, Foster City, Calif.). Q-PCR analyses for PDK-1 were conducted using TaqMan chemistry and Assays on Demand probes (Applied Biosystems, PDK1-Hs00176884_ml, ADRP-Hs00765634_ml, FIAF-Hs00211522_ml), Cyp26a-Hs01075671_gl, BTG2-Hs00198887_ml, cyclin D1 0 Hs00277039-ml. […] Analyses were carried out using the relative standard curve method (Applied Biosystems Technical Bulletin no. 2).

FABP5 [2] = biological target: T1, FABP5 (Homo sapiens, UniProt Q01469); experiment: Fluorescence-based binding assay (ANS titration and competition); set-up: GST; made in house; host or cells: E. coli BL21
Target sequence in this assay (Q01469 whole entry, species assumed): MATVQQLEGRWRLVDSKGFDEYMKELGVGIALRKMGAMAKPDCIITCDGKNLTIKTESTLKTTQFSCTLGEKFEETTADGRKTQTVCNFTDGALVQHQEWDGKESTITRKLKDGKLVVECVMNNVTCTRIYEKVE
Experimental: Binding assays were carried out by fluorescence titrations using a Fluorolog 2 DMIB spectrofluorometer (SPEX Instruments, Edison, N.J.). […] In the first step, Kd for the association of the protein with the fluorescent fatty acid probe ANS was measured. Protein (1 μM) was titrated with ANS from a concentrated solution in ethanol. Ligand binding was monitored by following the increase in the fluorescence of the ligand upon binding to the protein (λex-370 nm; λem-475 nm). Titration curves were analyzed (Norris and Li, 1998) to yield the number of binding sites and Kd. Kds for binding of non-fluorescent ligands were then measured by monitoring their ability to compete with fluorescent probes for binding. […] Kds were extracted from the EC50 of the competition curve and the measured Kd for the probe. Analyses were carried out using Origin 7.5 software (MicroCal Software Inc., Northampton, Mass.).

GFP-FABP5 = biological target: T2, GFP-FABP5 (Homo sapiens, UniProt Q01469); experiment: Confocal fluorescence microscopy of GFP-FABP5 in live COS-7 cells; type: cell-based; settings: ligand 1 μM, 30 min
T2 construct: expressed in transfected cells; host or cells: COS-7
T2 sequence (Q01469 whole entry): as the sequence (Q01469 whole entry, species assumed) above
Experimental: Images were acquired from live cells before and after a 30 min. treatment with RA (1 μM). […] Forty cells of each treatment group were analyzed (mean±SEM).
Confocal fluorescence microscopy. COS-7 cells were plated in 35 mm glass bottom microwell dishes (Mattek) in DMEM containing 5% charcoal-treated FBS (75,000 cells per plate), grown for 12 hr. and transfected using Fugene (Roche) with an expression vector harboring GFP-tagged FABP5 (EGFP, 250 ng DNA per plate). Following a 48 hr incubation, medium was replaced with serum-free DMEM, and live cells were imaged using a Leica TCS SP2 confocal microscope equipped with a 40× oil immersion lens. After imaging, cells were treated with ligands (1 μM), incubated at 37° C. for 30 min and imaged again. An average of 40 cells were analyzed using ImageJ (National Institute of Health).

[3] = test system: PPAR β/δ target genes PDK1 and FIAF; experiment: Real-time PCR of PDK1 and FIAF in cultured adipocytes; type: cell-based
From the text: We then used real-time PCR to examine the effects of these ligands on the expression of PDK1 and another known PPAR β/δ target gene, FIAF.

Akt = experiment: Immunoblots of phospho-Akt in HaCaT cells; type: cell-based, human; settings: ligand 0.1 μM, 12 hr, immunoblot
Experimental: (§2) FIG. 1B illustrates a graph showing the results of the total activation of cells cotransfected with either control siRNA or siRNA for PPARβ/δ, and then treated with RA at the denoted concentrations. FIG. 1C illustrates graphs showing the levels of mRNA of the PPARβ/δ target genes FIAF, ADRP, and PDK-1 expressed from HaCaT cells treated with the denoted ligands (0.1 μM, 4 hr). Levels of mRNA of the PPARβ/δ target genes FIAF, ADRP, and PDK-1 were analyzed by Q-PCR and normalized to 18s mRNA. FIG. 1D illustrate a graph showing the level of ADRP mRNA in HaCaT cells that were transfected with control siRNA or PPARβ/δ siRNA (24 hr.), and then treated with the denoted ligands (0.1 μM, 4 hr). ADRP mRNA was analyzed by QPCR and normalized to 18s mRNA. Data are mean±SEM, n=3. FIG. 1E illustrates immunoblots of […], total Akt, and β-tubulin in cells treated with denoted ligands (0.1 μM, 12 hr). Data from a representative experiment, which was repeated 4 times with similar results are shown. FIG. 1F illustrates a graph of the total activation of HaCaT cells transfected with a RARE-driven luciferase reporter. Cells were treated with RA at the denoted concentrations (15 hr), lysed, and luciferase activity measured and corrected for β-galactosidase activity. […] Expression of mRNA of the RAR target gene Cyp26α was analyzed by Q-PCR and normalized to 18s mRNA. […]

FABP5 [4] = biological target: T1, FABP5; experiment: Subcellular fractionation and immunoblot of endogenous FABP5 in HaCaT cells; type: cell-based; set-up: To monitor the effects of ligands on the localization of endogenous FABP5 in HaCaT cells; endogenous in cells; host or cells: HaCaT; settings: ligand 1 μM, 30 min, subcellular fractionation
Target sequence in this assay (Q01469 whole entry): as the sequence (Q01469 whole entry, species assumed) above
Experimental: FIG. 2C illustrates an immunoblot of HaCaT cells treated with denoted RA or with stearic acid (1 μM, 30 min.). Nuclei were separated from cytosol by subcellular fractionation (Calbiochem ProtoExtract Subcellular Proteome Extraction kit) and analyzed for the presence of FABP5 by immunoblots.
The subcellular localization of FABP5 was then examined. […] To monitor the effects of ligands on the localization of endogenous FABP5 in HaCaT cells, cells were treated with vehicle, RA, or stearate, subjected to subcellular fractionation, and the presence of FABP5 in cytosol and in nuclei examined by immunoblots (FIG. 2C).

RAR = experiment: Transactivation assay, RARE-driven luciferase reporter in HaCaT cells; type: cell-based, human; settings: RA 15 hr
Experimental: as §1
Transactivation assays. Cells were cultured in 24-well plates and co-transfected with (PPRE)3-luciferase reporter vector (100 ng), a vector harboring the appropriate iLBP (in pCDNA 3.1, 200 ng), and pCH110, a β-galactosidase expression plasmid (50 ng). […]

[5] = test system: obese mice fed a high fat/high sucrose diet; experiment: Diet-induced mouse model of obesity, systemic RA treatment; type: in vivo
Experimental: We have now completed a pilot experiment to examine the notion that all-trans-retinoic acid (RA) suppresses obesity and insulin resistance. Experiments were carried out using both cultured adipocytes and a diet-induced mouse model of obesity.
For the in vivo experiments, C57BU6J mice were fed a high fat/high sucrose diet for 16 weeks, when they weighed 1.5 fold more than a cohort fed a standard diet. […] Obese mice were separated into two groups. Both groups were continually maintained on the high fat/high sucrose diet, and one of them was systemically treated with RA.
An important measure of insulin sensitivity is the ability of an animal to clear glucose from plasma. This parameter is assessed by glucose tolerance tests (GTT) in which glucose is administered to the mice and the kinetics of its clearance from blood measured.

PPARβ/δ [6] = biological target: T3, PPARβ/δ (Homo sapiens, UniProt Q03181); experiment: Transactivation assay, PPRE-driven luciferase reporter in HaCaT cells; type: cell-based; set-up: endogenous in cells; host or cells: HaCaT
T3 sequence (Q03181 1-441): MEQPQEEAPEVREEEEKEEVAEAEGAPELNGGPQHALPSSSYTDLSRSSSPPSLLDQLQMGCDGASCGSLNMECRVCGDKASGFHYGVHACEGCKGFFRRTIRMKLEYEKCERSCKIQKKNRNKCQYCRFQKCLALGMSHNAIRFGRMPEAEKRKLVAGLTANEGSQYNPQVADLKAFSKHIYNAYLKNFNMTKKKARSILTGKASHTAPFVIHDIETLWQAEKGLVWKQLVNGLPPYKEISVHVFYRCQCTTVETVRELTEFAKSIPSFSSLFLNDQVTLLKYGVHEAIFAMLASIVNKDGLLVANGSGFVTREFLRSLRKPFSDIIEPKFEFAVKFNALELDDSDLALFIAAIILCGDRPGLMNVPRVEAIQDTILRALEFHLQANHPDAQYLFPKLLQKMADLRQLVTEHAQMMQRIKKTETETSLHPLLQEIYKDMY
Experimental: The ability of RA to activate PPARβ/δ in the human keratinocyte cell line HaCaT was examined. Transactivation assays were conducted in HaCaT cells transfected with a PPRE-driven luciferase reporter. Cells were treated with the ligands denoted in FIG. 1 for 15 hours, lysed and luciferase activity was measured and corrected for β-galactosidase activity. Data was normalized to the basal activity. Data are mean±SEM, n=3
(§3) Transactivation assays. Cells were cultured in 24-well plates and co-transfected with (PPRE)3-luciferase reporter vector (100 ng), a vector harboring the appropriate iLBP (in pCDNA 3.1, 200 ng), and pCH110, a β-galactosidase expression plasmid (50 ng). In some experiments, an expression vector encoding RAR or PPARβ/δ (in pSG5, 50 ng) was cotransfected. Transfections were carried out using Fugene (Roche Diagnostics Corporation) according to the protocol of the manufacturer. Twenty-four hours following transfection, medium was replaced by DMEM, and ligands were added (RA—in ethanol, other ligands—in dimethylsulfoxide). Following 24 hr of treatment, cells were lysed and lysates assayed for luciferase activity (Luciferase assay system, Promega) which was corrected for β-galactosidase activity. Experiments were carried out in triplicates.

RAR target gene Cyp26α = experiment: Q-PCR of RAR target gene Cyp26α in HaCaT cells; type: cell-based, human; settings: normalized to 18s mRNA
Experimental: as §2, with “FIG. 1F illustrates a graph of the total activation of HaCaT cells transfected with a RARE-driven luciferase reporter.” left out
Quantitative real-time PCR (Q-PCR). […]

PPARβ/δ [7] = biological target: T3, PPARβ/δ; experiment: Transactivation assay in COS-7 cells, PPRE reporter with PPARβ/δ expression vector; type: cell-based; set-up: expressed in transfected cells; host or cells: COS-7; settings: COS-7 cells cotransfected with PPARβ/δ expression vector
Experimental: as §3

[8] = obese mice on high fat diet, RA treated

SMILES: CC1=C(/C=C/C(C)=C\C=C\C(C)=C\C(=O)O)C(C)(C)CCC1 [9-cis-RA]
expression of mRNA of PPARβ/δ target genes FIAF, ADRP and PDK-1 ([1]; ligand 0.1 μM, 4 hr): modest response

Kd (FABP5 [2]; mean±SD, n=3, protein 1 μM titrated with probe, read-out: Kd for FABP5, direct fluorescence titration): 57 ± 7.3 nM
SMILES: O=S(=O)(O)c1cccc2cccc(Nc3ccccc3)c12 [ANS, Anilinonaphtalene-8-sulphonic acid]

SMILES: CCCCCCCCCCCCCCCCCC(=O)O [stearic acid]
subcellular distribution of GFP-FABP5 (nuclear/cytoplasmic) (GFP-FABP5): did not affect the subcellular distribution

SMILES: C/C(=C\c1ccc(C(=O)O)cc1)c1ccc2c(c1)C(C)(C)CCC2(C)C [TTNPB, 4-[(E)-2-(5,6,7,8-Tetrahydro-5,5,8,8-tetramethyl-2-naphthalenyl)-1-propenyl]benzoic acid]
expression of mRNA of PPARβ/δ target genes FIAF, ADRP and PDK-1 ([1]; ligand 0.1 μM, 4 hr): little effect
expression of FIAF and PDK1 mRNA [3]: down-regulation of the two genes

SMILES: Cc1cc(SCc2sc(-c3ccc(C(F)(F)F)c(F)c3)nc2C)ccc1OCC(=O)O [GW0742]
subcellular distribution of GFP-FABP5 (nuclear/cytoplasmic) (GFP-FABP5): distinct shift of the protein into the nucleus
Kd (FABP5 [2]): 42.3 ± 4.5 nM
phosphorylation level of Akt (Akt): significantly increased

nuclear localization of endogenous FABP5 (FABP5 [4]): accumulates in the nucleus
RA-induced PPRE reporter response after PPARβ/δ siRNA (PPARβ/δ [6]; PPARβ/δ expression decreased by about 80% by siRNA): markedly suppressed
Kd (FABP5 [2]; mean±SD, n=3, extracted from EC50 of competition curve and Kd of probe, read-out: Kd for FABP5, fluorescence competition titration against ANS): 34.8 ± 6.6 nM
SMILES: CC1=C(/C=C/C(C)=C/C=C/C(C)=C/C(=O)O)C(C)(C)CCC1 [RA, all-trans-retinoic acid]
induction of ADRP mRNA after PPARβ/δ siRNA ([1]; 80% decrease in PPARβ/δ expression, ligand 0.1 μM, 4 hr): significantly hampered
induction of ADRP mRNA after FABP5 siRNA ([1]; about 80% decrease in FABP5 protein): markedly attenuated
expression of mRNA of PPARβ/δ target genes FIAF, ADRP and PDK-1 ([1]; ligand 0.1 μM, 4 hr): upregulated the expression of mRNA for all three
expression of RARE-driven luciferase reporter (RAR): upregulated the expression of a reporter gene construct
hepatic lipid accumulation (steatosis) ([5]; livers of mice fed a high fat diet and treated with RA): all but devoid of lipid stores
weight of fat tissue (white adipose tissue) [5, 8]: decreased by over two fold
weights of liver, skeletal muscle or brown adipose tissue (BAT) [5, 8]: without affecting
food consumption ([5]; obese mice on high fat diet, RA treated vs non-treated cohort): higher than that of the non-treated cohort
loss of body weight ([5]; obese mice on high fat/high sucrose diet, five week RA treatment, 0.16 mg/day systemic): ~15%
expression of FIAF and PDK1 mRNA [3]: enhanced the expression of these genes
transcription of the PPRE-driven luciferase reporter (PPARβ/δ [6]; ligand 15 hours, GW0742/TTNPB 1 μM, RA at several concentrations): enhanced the expression of the PPRE-driven reporter and did so in a dose responsive manner
subcellular distribution of GFP-FABP5 (nuclear/cytoplasmic) (GFP-FABP5): distinct shift of the protein into the nucleus
expression of mRNA for CYP26α (RAR target gene Cyp26α): efficiently upregulated
expression of PPRE-driven reporter (PPARβ/δ [7]): enhanced the expression of the PPRE-driven reporter in a dose-responsive manner
phosphorylation level of Akt (Akt): significantly increased
